Results on three compounds are retold here after US20050240034A1, “Artemisinin-based peroxide compounds as broad spectrum anti-infective agents” (priority 2002, published 2005).

The subject of one data set is P. falciparum. The settings on record: cited from earlier work.
Data set [1] concerns P. falciparum D6 (Sierra Leone). The experiment in a line: antimalarial parasite LDH (pLDH) assay, D6. It counts as cell-based, Plasmodium falciparum. The note with it: for P. falciparum (IC50) D6: LDH assay, Table 6; for S. I. (D6): Selectivity Index = IC50 (Vero cells)/IC50 (P. falciparum). How it is done: (§1) The Thad Cochran National Center for Natural Products Research (University of Mississippi) in vitro antimalarial screen was conducted using an enzyme assay for detection of P. falciparum (see procedure below). This assay is based on the observation that lactate dehydrogenase (LDH) of P. falciparum is distinguishable from host LDH activity. P. falciparum LDH rapidly uses 3-acetyl pyridine nicotinamide adenine dinucleotide (APAD) as a coenzyme in the biotransformation of […].^38 The same process is carried out in human red blood cells at a very slow rate.
(§2) The “Antimalarial parasite LDH assay” is currently being conducted according the following procedure: prepare a suspension of RBC with a 2% parasitemia and 2% hematocrit in malaria complete medium. Dispense 200 μl aliquots of this suspension into each well of a 96 well microtiter plate. Add 10 μl volumes of the drugs to be tested in duplicate to the appropriate wells. Place the plates into humidified chamber and flush the cultures with a gas mixture consisting of 90% N2, 5% O2, and 5% CO2. Transfer the chamber containing the plates to an incubator, and incubate for 48 hours at 37° C. After 48 hours add 100 μl aliquots of the Malstat™ reagent to each well of a new 96-well microtiter plate Resuspend the cultures from the assay plate by mixing each well up and down several times. Remove 20 μl from each well of the resuspend culture and add to the plate containing the Malstat™ reagent. Incubate the plates at room temperature for 30 minutes. After 30 minutes, add to each well 20 μl of the 1:1 mixture of the NBT/PES solution (2 mg/ml and 0.1 mg/ml, respectively). Incubate the plates in the dark for 1 hour. Add 100 μl of 5% acetic acid solution to stop the reaction. The plate is then read at an endpoint of approximately 650 nm. The dose response curves are generated using Microsoft Excel.
(§3) Antimalarial activity of the analogues was determined in vitro on chloroquine sensitive (D)6, Sierra Leone) and resistant (W2, IndoChina) strains of Plasmodium falciparum. The 96 well microplate assay is based on evaluation of the effect of the compounds on the growth of asynchronous cultures of P. falciparum, determined by the assay of parasite lactate dehydrogenase (pLDH) activity.^28 The appropriate dilutions of the compounds were prepared in DMSO or RPMI-1640 medium and added to the cultures of P. falciparum (2% hematocrit, 2% parasitemia) set up in clear flat bottomed 96 well plates. The plates were placed into the humidified chamber and flushed with a gas mixture of 90% N2, 5% CO2 & 5% O2. The cultures were incubated at 37° C. for 48 hours. Growth of the parasite in each well was determined by pLDH assay using Malstat® reagent. The medium and RBC controls were also set-up in each plate. The standard antimalarial agents, chloroquine and artemisinin, were used as the positive controls while DMSO was tested as the negative control.

Data set [2] relates to P. falciparum W2 (IndoChina). In words: antimalarial parasite LDH (pLDH) assay, W2. The class given is cell-based, Plasmodium falciparum. The settings on record: for P. falciparum (IC50) W2: LDH assay, Table 6; for S. I. (W2): Selectivity Index = IC50 (Vero cells)/IC50 (P. falciparum). How it is done:
as §1, §2
as §3, with “plate.” for “plate. The standard antimalarial agents, chloroquine and artemisinin, were used as the positive controls while DMSO was tested as the negative control.”

A short description of a further data set: aqueous solubility. It counts as physicochemical. The note with it: pH 6.5, phosphate buffer. How it is done: (§4) Compounds 39 and 36 have reasonably low plasma LOQ of about 10 ng/mL, so it will be tested with lower oral doses in the coming future. If we assume that it is only the fraction of drug in solution that is absorbed, then the oral bioavailabilities may well increase with lower doses.

The next data set has as its system P. yoelli ssp. NS. In words: in vivo 4-day antimalarial test in mice, P. yoelli ssp. NS. The note with it: subcutaneous; unit not given. How it is done:
(§5) The parasitemia is determined on the day following the last treatment—day 4 to determine qualitatively the presence and degree of activity at the screening dose.

The subject of a further data set is P. falciparum NF54. The experiment in a line: WHO/TDR in vitro antimalarial screen, NF54. The class given is cell-based, Plasmodium falciparum. The note with it: NF54, chloroquine-sensitive; second value in brackets not explained. How it is done:
(§6) […]. All test compounds are solubilized in DMSO and diluted 400 fold (to rule out a DMSO effect) in culture medium with plasma for a starting concentration of at least 12,500 ng/mL. Drugs are subsequently diluted five fold using the Cetus Pro/Pette system utilizing a range of concentrations from 0.8 ng/mL to 12,500 ng/mL. Fifty percent inhibitory concentrations are reported in ng/mL.
(§7) The D6 African P. falciparum clone is sensitive to chloroquine, pyrimethamine and sulfadoxine but resistant to mefloquine. The W2 Indochina P. falciparum clone is resistant to chloroquine, pyrimethamine and sulfadoxine but sensitive to mefloquine. The K1 P. falciparum is a resistant strain, where NF54 P. falciparum is a sensitive strain.

Another data set has as its system P. falciparum K1. The experiment in a line: WHO/TDR in vitro antimalarial screen, K1. It counts as cell-based, Plasmodium falciparum. The note with it: K1, chloroquine-resistant. How it is done:
as §6, §7

The subject of data set [3] is P. falciparum Sierra Leone D6 clone. The experiment in a line: WHO/TDR in vitro antimalarial screen (uptake of radiolabeled nucleic acid precursor), D6 clone. The class given is cell-based, Plasmodium falciparum. The note with it: mefloquine-resistant, chloroquine-sensitive, second value in brackets not explained. How it is done: (§8) All test compounds are solubilized in DMSO and diluted 400 fold (to rule out a DMSO effect) in culture medium with plasma for a starting concentration of at least 12,500 ng/mL. Drugs are subsequently diluted five fold using the Cetus Pro/Pette system utilizing a range of concentrations from 0.8 ng/mL to 12,500 ng/mL. Fifty percent inhibitory concentrations are reported in ng/mL.
as §7

Data set [4] relates to VERO cells (monkey kidney fibroblast). The class given is cell-based. How it is done: Antileishmanial activity of the compounds was tested on a transgenic cell line of Leishmania donovani promastigotes expressing firefly luciferase.^29a In a 96 well microplate assay, compounds with appropriate dilution were added to the leishmania promastigotes culture (2×10^6 cell/mL). The plates were incubated at 26° C. for 72 hours and growth of leishmania promastigotes was determined by luciferase assay with Steady Glo® reagent (Promega, USA). Pentamidine and Amphotericin B were used as standard antileishmanial agents. The analogues were simultaneously tested for cytotoxicity on VERO cells (monkey kidney fibroblast) by Neutral Red assay.^29b IC50 values for the compounds were computed from the growth inhibition curve.

In the next data set the test system is P. berghei N. In words: in vivo Peter's 4-day antimalarial test in mice, P. berghei N. The settings on record: mice, 4-day test, unit not given; for P. berghei N P.O. ED50 / P. berghei N P.O. ED90: oral; for P. berghei N S.C. ED50 / P. berghei N S.C. ED90: subcutaneous. How it is done: as §5
The test system of data set [5] is P. falciparum Indochina W2 clone. In words: WHO/TDR in vitro antimalarial screen, W2 clone. It counts as cell-based, Plasmodium falciparum. The note with it: chloroquine-resistant, mefloquine-sensitive, second value in brackets not explained. How it is done:
as §8, §7

Data set [6] can be described thus: pharmacokinetics in rats after intravenous and oral administration. It counts as in vivo. The note with it: for absolute oral bioavailability: high oral dose (~120 mg/kg). How it is done: Preliminary data for the PK results of compounds 39 and 36 have been disclosed. […] Due to their very low aqueous solubility, the absolute oral bioavailability of each compound was low. The low value is rather a function of the high oral dose (˜120 mg/kg), but even with these high doses, the plasma concentrations are still relatively low.
The reason for the use of high oral dose is that the LC/MS assay has different intrinsic sensitivities for the different series of the Malperox compounds. Also, in order to compare all compounds from the different series at the same oral molar dose (dictated by the compound, which has the highest LOQ in the assay), it was necessary for them to have gone with this dose.
as §4
Solubility limitations meant that 36 could only be dosed IV at approximate 2 mg/kg (compared with the approximate 12 mg/kg dose for 39). It is possible that the shorter measured half life for 36 was a function of lower plasma concentrations, which have reflected part of the distribution phase rather than a true elimination phase.

In the case of `C[C@H]1[C@@H](O)O[C@@H]2O[C@@]3(C)CC[C@H]4[C@H](C)CC[C@@H]1[C@@]24OO3` [dihydroartemisinin], the “times more potent than the parent compound (artemisinin) in vitro” value in the data set on P. falciparum is reported as “approximately 10 times”.

For “(+)-Octahydro-3,6α-dimethyl-3,12-epoxy-9β-(3′-(m-chlorophenyl)propyl)-12H-pyrano[4,3j]-1,2-benzodioxepin [Compound 36]”, in data set [1], the “P. falciparum (IC50) D6” value was found to be 0.0076 µg/mL and the “S. I. (D6)” value was above 63.0. In [2], the “P. falciparum (IC50) W2” value was found to be 0.008 µg/mL and the “S. I. (W2)” value is listed as above 60. Moreover, the aqueous solubility in “aqueous solubility” is listed as around 0.1 microgram per mL. Moreover, in the data set on P. yoelli ssp. NS, the “P. yoelli ssp. NS (S.C.) ED50” value is reported as 0.60 (0.4-1.0) and the “P. yoelli ssp. NS (S.C.) ED90” value is 1.00 (0.8-1.8). In the data set with P. falciparum NF54, the “P. falciparum (IC50) NF54” value was 16.27 (40.19) ng/mL. Besides, the “P. falciparum (IC50) K1” value with P. falciparum K1 amounted to 0.01007 µg/mL. Moreover, the “P. falciparum (IC50) D6” value in [3] came to 0.00755 µg/mL. Besides, the “Cytotoxicity (Vero) TC50” value in data set [4] is “NC^b”. Further, in the data set on P. berghei N, the “P. berghei N P.O. ED50” value was 2.0 (0.9-3.5), the “P. berghei N P.O. ED90” value is given as 8.3 (3.5-14.0), the “P. berghei N S.C. ED50” value is listed as 0.5 (0.1-1.0) and the “P. berghei N S.C. ED90” value was 0.9 (0.3-1.8). Moreover, the “P. falciparum (IC50) W2” value in data set [5] stood at 0.0216 µg/mL. Further, in [6], the absolute oral bioavailability entry is on record as “low”.

In general, half-life refers to the time in which the quantity being followed falls by half. Turning to “(+)-Octahydro-3,6α-dimethyl-3,12-epoxy-9β-(3′-(p-trifluoromethylphenyl)propyl)-12H-pyrano[4,3j]-1,2-benzodioxepin [Compound 39]”, in data set [1], the “P. falciparum (IC50) D6” value worked out at 0.012 µg/mL and the “S. I. (D6)” value is on record as above 40. For the same compound, in data set [2], the “P. falciparum (IC50) W2” value was 0.012 µg/mL and the “S. I. (W2)” value was above 40. The aqueous solubility in “aqueous solubility” is around 0.1 microgram per mL. Moreover, in the data set with P. yoelli ssp. NS, the “P. yoelli ssp. NS (S.C.) ED50” value is recorded as 0.67 (0.5-0.88) and the “P. yoelli ssp. NS (S.C.) ED90” value is on record as 1.25 (0.95-1.6). In addition, the “P. falciparum (IC50) NF54” value with P. falciparum NF54 is reported as 101.52 (48.78) ng/mL. Besides, in the data set with P. falciparum K1, the “P. falciparum (IC50) K1” value amounted to 0.03955 µg/mL. Also, in data set [3], the “P. falciparum (IC50) D6” value was 0.02813 µg/mL. Further, in the data set on P. berghei N, the “P. berghei N P.O. ED50” value was 0.63 (0.32-1.25), the “P. berghei N P.O. ED90” value is on record as 2.1 (1.1-4.1), the “P. berghei N S.C. ED50” value is 0.44 (0.25-0.62) and the “P. berghei N S.C. ED90” value was 0.85 (0.5-1.2). Besides, the “P. falciparum (IC50) W2” value in data set [5] was 0.05801 µg/mL. Also, the half-life in data set [6] (IV, approximate 12 mg/kg) amounted to 1.22 h. The absolute oral bioavailability entry in data set [6] is given as “low”.
